# Read-outs that look alike come from different tables or passages of the source.
# What was measured:
# S gordonii = experiment: MIC/MBC broth microdilution; assay type: cell-based, Streptococcus gordonii
# K. oxytoca = experiment: MIC/MBC broth microdilution; assay type: cell-based; settings: K. oxytoca
# P. aeruginosa = experiment: MIC/MBC broth microdilution; assay type: cell-based, Pseudomonas aeruginosa
# S. typhimurium = experiment: MIC/MBC broth microdilution; assay type: cell-based; settings: S. typhimurium
# S. boydii = experiment: MIC/MBC broth microdilution; assay type: cell-based, Shigella boydii; settings: S. boydii
# S. faecalis = experiment: MIC/MBC broth microdilution; assay type: cell-based, Streptococcus faecalis
# K. pneumoniae = experiment: MIC/MBC broth microdilution; assay type: cell-based, Klebsiella pneumoniae
# E. coli = experiment: MIC/MBC broth microdilution; assay type: cell-based, Escherichia coli
# S. pyogenes = experiment: MIC/MBC broth microdilution; assay type: cell-based, Streptococcus pyogenes
# S. aureus = experiment: MIC/MBC broth microdilution; assay type: cell-based, Staphylococcus aureus
# S. mutans = experiment: MIC/MBC broth microdilution; assay type: cell-based, Streptococcus mutans
# S arizona = experiment: MIC/MBC broth microdilution; assay type: cell-based, Salmonella arizona
# E. aerogenes = experiment: MIC/MBC broth microdilution; assay type: cell-based, Enterobacter aerogenes
# S. pneumoniae = experiment: MIC/MBC broth microdilution; assay type: cell-based
# S.typhi = experiment: Zone of inhibition, agar well; settings: antibiotic amount (5-200 mcg)
# E. coil = experiment: Zone of inhibition, agar well; settings: E.coli; antibiotic amount (5-200 mcg)
# S. aureus ATCC 6538 P = experiment: Zone of inhibition, agar well; settings: antibiotic amount (1-200 mcg)
# MRSA 2 = experiment: Zone of inhibition, agar well; settings: antibiotic amount (1-200 mcg)
# [1] = system: Escherichia coli MDR clinical isolate (stool); experiment: Antibiotic sensitivity, Kirby Bauer; settings: for Zone size (mm): E.c, Kirby-Bauer antibiotic disc; for resistance of isolate: gram-negative isolate E. coli
# [2] = system: Pseudomonas aeruginosa MDR clinical isolate (sputum); experiment: Antibiotic sensitivity, Kirby Bauer; settings: for resistance of isolate: gram-negative isolate Pseudomonas
# MRSA 1 = experiment: Zone of inhibition, agar well; settings: antibiotic amount (1-200 mcg)
# Ps. Aeruginosa = experiment: Zone of inhibition, agar well; settings: antibiotic amount (5-200 mcg)
# E. cloacae = experiment: MIC/MBC broth microdilution; assay type: cell-based
# B. subtilis = experiment: Zone of inhibition, agar well; settings: antibiotic amount (1-200 mcg)
# [3] = system: MRSA clinical isolate (pus); experiment: Antibiotic sensitivity, Kirby Bauer
# [4] = Streptococcus gordonii, read-out: MBC
# [5] = Streptococcus gordonii, read-out: MIC
# [6] = Pseudomonas aeruginosa, read-out: MBC
# [7] = Pseudomonas aeruginosa, read-out: MIC
# [8] = Salmonella enterica, read-out: MBC
# [9] = Salmonella enterica, read-out: MIC
# [10] = Enterobacter cloacae, read-out: MIC
# [11] = Enterococcus faecalis, read-out: MBC
# [12] = Enterococcus faecalis, read-out: MIC
# [13] = Klebsiella pneumoniae, read-out: MIC
# [14] = Escherichia coli, read-out: MBC
# [15] = Escherichia coli, read-out: MIC
# [16] = Streptococcus pyogenes, read-out: MBC
# [17] = Streptococcus pyogenes, read-out: MIC
# [18] = Staphylococcus aureus, read-out: MBC
# [19] = Staphylococcus aureus, read-out: MIC
# [20] = Streptococcus mutans, read-out: MBC
# [21] = Streptococcus mutans, read-out: MIC
# [22] = Streptococcus pneumoniae, read-out: MBC
# [23] = Streptococcus pneumoniae, read-out: MIC
smiles,measurement,setting,value
CCN1CCN(C(=O)N[C@@H](C(=O)N[C@@H]2C(=O)N3C(C(=O)O)=C(CSc4nnnn4C)CS[C@H]23)c2ccc(O)cc2)C(=O)C1=O [Cefaperazon],MBC,S gordonii; S gordonii,1.25/1.25 ppm
same,MIC,S gordonii; S gordonii,1.25/1.25 ppm
same,MBC,K. oxytoca,> 5.0 ppm
same,MIC,K. oxytoca,1.25 ppm
same,MBC,P. aeruginosa,5.0 ppm
same,MIC,P. aeruginosa,2.5 ppm
same,MBC,S. typhimurium,2.5 ppm
same,MIC,S. typhimurium,1.25 ppm
same,MBC,S. boydii,0.625/0.625 ppm
same,MIC,S. boydii,0.625/0.625 ppm
same,MIC,S. faecalis,>5.0 ppm
same,MIC,K. pneumoniae,>5.0 ppm
same,MBC,E. coli,> 5.0 ppm
same,MIC,E. coli,0.625 ppm
same,MBC,S. pyogenes,1.25 ppm
same,MIC,S. pyogenes,0.313 ppm
same,MBC,S. aureus,5.0/5.0 ppm
same,MIC,S. aureus,5.0/5.0 ppm
same,MBC,S. mutans,> 5 ppm
same,MIC,S. mutans,1.25 ppm
same,MBC,S arizona,> 5.0 ppm
same,MIC,S arizona,0.833 ppm
same,MBC,E. aerogenes; E. aerogenes,> 5.0 ppm
same,MIC,E. aerogenes; E. aerogenes,2.92 ppm
same,MBC,S. pneumoniae,0.313/0.313 ppm
same,MIC,S. pneumoniae,0.313/0.313 ppm
CO/N=C(\C(=O)N[C@@H]1C(=O)N2C(C(=O)O)=C(COC(C)=O)CS[C@H]12)c1csc(N)n1 [Cefotaxime],"zone of inhibition, antibiotics",S.typhi,22 mm
same,"zone of inhibition, antibiotics",E. coil,21 mm
same,"zone of inhibition, antibiotics",S. aureus ATCC 6538 P,26 mm
same,"zone of inhibition, antibiotics",MRSA 2,-Clear
NC[C@H]1O[C@H](O[C@H]2[C@H](O)[C@@H](O[C@H]3O[C@H](CO)[C@@H](O)[C@H](N)[C@H]3O)[C@H](N)C[C@@H]2N)[C@H](O)[C@@H](O)[C@@H]1O [kanamycin],Zone size (mm),[1],14 mm
CC1(C)S[C@@H]2[C@H](NC(=O)[C@H](N)c3ccccc3)C(=O)N2[C@H]1C(=O)O [Ampicillin],resistance of isolate,[2],resistance
same,"zone of inhibition, antibiotics",S.typhi,20 mm
same,"zone of inhibition, antibiotics",E. coil,23 mm
same,"zone of inhibition, antibiotics",S. aureus ATCC 6538 P,Clear
same,"zone of inhibition, antibiotics",MRSA 1,15 mm
same,"zone of inhibition, antibiotics",MRSA 2,18 mm
same,resistance of isolate,[1],resistance
O=C(O)c1cn(C2CC2)c2cc(N3CCNCC3)c(F)cc2c1=O [Ciprofloxacin],"zone of inhibition, antibiotics",S.typhi,25 mm
same,"zone of inhibition, antibiotics",E. coil,29 mm
same,"zone of inhibition, antibiotics",S. aureus ATCC 6538 P,28 mm
same,"zone of inhibition, antibiotics",MRSA 1,14 mm
same,"zone of inhibition, antibiotics",MRSA 2,14 mm
O=C(N[C@H](CO)[C@H](O)c1ccc([N+](=O)[O-])cc1)C(Cl)Cl [Chloramphenicol],"zone of inhibition, antibiotics",S.typhi,23 mm
same,"zone of inhibition, antibiotics",Ps. Aeruginosa,No inhibition
same,"zone of inhibition, antibiotics",E. coil,22 mm
CC[C@H]1OC(=O)[C@H](C)[C@@H](O[C@H]2C[C@@](C)(OC)[C@@H](O)[C@H](C)O2)[C@H](C)[C@@H](O[C@@H]2O[C@H](C)C[C@H](N(C)C)[C@H]2O)[C@](C)(O)C[C@@H](C)C(=O)[C@H](C)[C@@H](O)[C@]1(C)O [Erythromycin],MBC,S gordonii; [4],0.019 µg/mL
same,MIC,S gordonii; [5],0.005 µg/mL
same,MIC,"K. oxytoca; Klebsiella oxytoca, read-out: MIC",> 5 µg/mL
same,MBC,P. aeruginosa; [6],> 5 µg/mL
same,MIC,P. aeruginosa; [7],2.5 µg/mL
same,MBC,S. typhimurium; [8],> 5 µg/mL
same,MIC,S. typhimurium; [9],5 µg/mL
same,MBC,"S. boydii; Shigella boydii, read-out: MBC",> 5 µg/mL
same,MIC,"S. boydii; Shigella boydii, read-out: MIC",5 µg/mL
same,MIC,E. cloacae; [10],> 5 µg/mL
same,MBC,S. faecalis; [11],1.25 µg/mL
same,MIC,S. faecalis; [12],0.009 µg/mL
same,MIC,K. pneumoniae; [13],> 5 µg/mL
same,MBC,E. coli; [14],> 5 µg/mL
same,MIC,E. coli; [15],5 µg/mL
same,MBC,S. pyogenes; [16],0.019 µg/mL
same,MIC,S. pyogenes; [17],0.003 µg/mL
same,MBC,S. aureus; [18],> 5 µg/mL
same,MIC,S. aureus; [19],0.039 µg/mL
same,MBC,S. mutans; [20],0.019 µg/mL
same,MIC,S. mutans; [21],0.009 µg/mL
same,MBC,"S arizona; Salmonella, read-out: MBC",> 5 µg/mL
same,MIC,"S arizona; Salmonella, read-out: MIC",4.17 µg/mL
same,MIC,"E. aerogenes; Klebsiella aerogenes, E. aerogenes, read-out: MIC",> 5 µg/mL
same,MBC,S. pneumoniae; [22],0.004 µg/mL
same,MIC,S. pneumoniae; [23],0.002 µg/mL
CC1COc2c(N3CCN(C)CC3)c(F)cc3c(=O)c(C(=O)O)cn1c23 (stereo not shown) [Ofloxacin],MBC,S gordonii; [4],5 µg/mL
same,MIC,S gordonii; [5],2.5 µg/mL
same,MBC,P. aeruginosa; [6],0.313 µg/mL
same,MIC,P. aeruginosa; [7],0.156 µg/mL
same,MBC,S. typhimurium; [8],0.156 µg/mL
same,MIC,S. typhimurium; [9],0.078 µg/mL
same,MBC,"S. boydii; Shigella boydii, read-out: MBC",0.156 µg/mL
same,MIC,"S. boydii; Shigella boydii, read-out: MIC",0.078 µg/mL
same,MBC,E. cloacae; Enterobacter cloacae,0.156 µg/mL
same,MIC,E. cloacae; [10],0.156 µg/mL
same,MBC,S. faecalis; [11],5 µg/mL
same,MIC,S. faecalis; [12],1.25 µg/mL
same,MBC,K. pneumoniae; Klebsiella pneumoniae,0.625 µg/mL
same,MIC,K. pneumoniae; [13],0.417 µg/mL
same,MBC,E. coli; [14],0.156 µg/mL
same,MIC,E. coli; [15],0.104 µg/mL
same,MBC,S. pyogenes; [16],2.5 µg/mL
same,MIC,S. pyogenes; [17],1.25 µg/mL
same,MBC,S. aureus; [18],0.625 µg/mL
same,MIC,S. aureus; [19],0.417 µg/mL
same,"zone of inhibition, antibiotics",MRSA 1,15 mm
same,MBC,S. mutans; [20],> 5 µg/mL
same,MIC,S. mutans; [21],2.5 µg/mL
same,MBC,"S arizona; Salmonella, read-out: MBC",0.078 µg/mL
same,MIC,"S arizona; Salmonella, read-out: MIC",0.078 µg/mL
same,MBC,E. aerogenes; Klebsiella aerogenes,0.156 µg/mL
same,MIC,E. aerogenes; Klebsiella aerogenes,0.078 µg/mL
same,MBC,S. pneumoniae; [22],2.5 µg/mL
same,MIC,S. pneumoniae; [23],2.5 µg/mL
same,"zone of inhibition, antibiotics",MRSA 2,16 mm
CC1=C(C(=O)O)N2C(=O)[C@@H](NC(=O)[C@H](N)c3ccccc3)[C@H]2SC1 [Cephalexin],"zone of inhibition, antibiotics",S. aureus ATCC 6538 P,Clear
same,"zone of inhibition, antibiotics",B. subtilis,Clear
same,"zone of inhibition, antibiotics",MRSA 1,1.0 mm
same,"zone of inhibition, antibiotics",MRSA 2,0.8 mm
Cc1onc(-c2ccccc2Cl)c1C(=O)N[C@@H]1C(=O)N2[C@@H]1SC(C)(C)[C@@H]2C(=O)O [Cloxacillin],"zone of inhibition, antibiotics",S. aureus ATCC 6538 P,Clear
same,"zone of inhibition, antibiotics",MRSA 1,Clear
same,"zone of inhibition, antibiotics",MRSA 2,13 mm
CC(C)(O/N=C(\C(=O)N[C@@H]1C(=O)N2C(C(=O)[O-])=C(C[n+]3ccccc3)CS[C@H]12)c1csc(N)n1)C(=O)O [ceftazidime],Zone size (mm),"[2]; Ps., Kirby-Bauer antibiotic disc",16 mm
same,resistance of isolate,[2],resistance
same,resistance of isolate,[3],resistant
same,Zone size (mm),[1],10 mm
same,resistance of isolate,[1],resistance
CO/N=C(\C(=O)N[C@@H]1C(=O)N2C(C(=O)O)=CCS[C@H]12)c1csc(N)n1 [Ceftizoxime],"zone of inhibition, antibiotics",S.typhi,15 mm
same,"zone of inhibition, antibiotics",Ps. Aeruginosa,No inhibition
same,"zone of inhibition, antibiotics",E. coil,18 mm
CCn1cc(C(=O)O)c(=O)c2ccc(C)nc21 [nalidixic acid],resistance of isolate,[2],resistance
same,resistance of isolate,[1],resistance
CC1(C)S[C@@H]2[C@H](NC(=O)Cc3ccccc3)C(=O)N2[C@H]1C(=O)O [Penicillin G],MBC,S gordonii; S gordonii,0.039 ppm
same,MIC,S gordonii; S gordonii,0.009 ppm
same,MIC,K. oxytoca,>5.0 ppm
same,MBC,P. aeruginosa,> 5.0 ppm
same,MIC,P. aeruginosa,0.13 ppm
same,MIC,S. typhimurium,>5.0 ppm
same,MIC,S. boydii,>5.0 ppm
same,MIC,E. cloacae,>5.0 ppm
same,MBC,S. faecalis,5.0/>5.0 ppm
same,MIC,S. faecalis,5.0/>5.0 ppm
same,MIC,K. pneumoniae,>5.0 ppm
same,MIC,E. coli,>5.0 ppm
same,MIC,S. pyogenes,>5.0 ppm
same,MBC,S. aureus,> 5.0 ppm
same,MIC,S. aureus,2.5 ppm
same,MBC,S. mutans,> 5 ppm
same,MIC,S. mutans,0.521 ppm
same,MIC,S arizona,>5.0 ppm
same,MIC,E. aerogenes; E. aerogenes,>5.0 ppm
same,MBC,S. pneumoniae,0.019/0.019 ppm
same,MIC,S. pneumoniae,0.019/0.019 ppm
CC[C@H]1OC(=O)[C@H](C)[C@@H](O[C@H]2C[C@@](C)(OC)[C@@H](O)[C@H](C)O2)[C@H](C)[C@@H](O[C@@H]2O[C@H](C)C[C@H](N(C)C)[C@H]2O)[C@](C)(O)C[C@@H](C)/C(=N\OCOCCOC)[C@H](C)[C@@H](O)[C@]1(C)O [Roxythromycin],"zone of inhibition, antibiotics",S. aureus ATCC 6538 P,Clear
same,"zone of inhibition, antibiotics",B. subtilis,20 mm
same,"zone of inhibition, antibiotics",MRSA 1,1.0 mm
same,"zone of inhibition, antibiotics",MRSA 2,12 mm
CCC[C@@H]1C[C@@H](C(=O)N[C@@H]([C@H]2O[C@H](SC)[C@H](O)[C@@H](O)[C@H]2O)[C@@H](C)O)N(C)C1 [Lincomycin],"zone of inhibition, antibiotics",S. aureus ATCC 6538 P,1Clear
same,"zone of inhibition, antibiotics",MRSA 1,Clear
same,"zone of inhibition, antibiotics",MRSA 2,Clear
CCn1cc(C(=O)O)c(=O)c2cc(F)c(N3CCN(C)CC3)cc21 [Peflofloxacin],"zone of inhibition, antibiotics",S.typhi,clear
same,"zone of inhibition, antibiotics",E. coil,Clear
same,"zone of inhibition, antibiotics",S. aureus ATCC 6538 P,30 mm
same,"zone of inhibition, antibiotics",MRSA 1,11 mm
same,"zone of inhibition, antibiotics",MRSA 2,13 mm
CCN1CCN(C(=O)N[C@@H](C(=O)N[C@@H]2C(=O)N3[C@@H]2SC(C)(C)[C@@H]3C(=O)O)c2ccccc2)C(=O)C1=O [Piperacillin],"zone of inhibition, antibiotics",S.typhi,16 mm
same,"zone of inhibition, antibiotics",E. coil,22 mm
